Data on 91 compounds can be found in a melting point compilation (Tetko et al.; mined from patent text by program, amines drawn as free bases though some values may be those of a salt).

Broadly, the melting point is the temperature, or range, at which the solid turns liquid.

For the compound `O=C(O)c1cc(NCc2c(F)c(F)c(C(F)(F)F)c(F)c2F)ccc1Br`, the melting point is 70 °C.
In the case of `CNC(=S)C1(c2cnc3ccccc3c2)CCCCC1=CC=O` (stereo unspecified) it was 149 to 151 °C.
With `CC(=O)OC[C@H]1NC(=O)[C@@H](Cc2cn(C)c3ccccc23)NC1=O`, the melting point lay within 250 to 252 °C.
Under `Sc1nsnc1C12CN3CC1C2C3` stands 205 to 207 °C; under `CCC(=O)c1cc(Br)no1`, 35 to 37 °C; under `N#Cc1ccc(OCc2ccsc2)cc1OC(C(=O)O)c1ccccc1Br` (racemic), 89 to 98 °C.
`CCOC(=O)CSC(C)=NO` came in with a melting point of 90 to 92 °C.
In the case of `CC(C(N)=O)c1ccc2c(c1)C(=O)Cc1cc([N+](=O)[O-])ccc1S2` (stereo unspecified) it was 207 to 209 °C; in that of `CCOC(=O)C1=C(C)Nc2nc(N)nc(N)c2C1c1cccc([N+](=O)[O-])c1` (stereo unspecified), 230 °C.
With `Cc1ccc(-c2nc(Cl)nc(Cl)c2-c2ccc(Cl)cc2)cc1`, the melting point is 223 to 225 °C.
Under `Cn1c(Br)c(C#N)c(Br)c1C#N` stands 175 to 178 °C; under `CC1CC(NC(=O)C(F)(F)F)=NN1c1ccc(Cl)c(Cl)c1` (stereo unspecified), 150 to 152 °C; under `COc1ccccc1C1(O)C(=O)Nc2ccc(C)c(Cl)c21` (stereo unspecified), 262 to 263 °C.
Under `Cc1ccc2[nH]c(CO)cc2c1` stands 94 to 95 °C; under `CCOC(=O)C(Cc1cc(C)cc(OC(F)(F)C(F)F)c1)C(=O)c1ccc(F)cc1` (stereo unspecified), 56 to 57 °C; under `COc1ccc(C(=O)c2ccc(-c3ccc(Cl)cc3)nc2)cc1OC`, 168 to 170 °C.
In the case of `COc1ccc(S(=O)(=O)C(CC(=O)NO)Cc2ccccc2)cc1OC` (stereo unspecified), the melting point lay in the range of 77 to 79 °C.
With `Nc1ccc(NC(=O)CCC(=O)O)cc1`, the melting point lay within 180 to 181 °C.
Under `CNS(=O)(=O)Cc1cc(Br)c(NC(=O)C(F)(F)F)c(Br)c1` stands 179 to 180 °C; under `CC(=O)c1cccc(Nc2ccc3ccccc3n2)c1`, 181 to 183 °C.
Turning to `O=C(c1ccc(Cl)cc1)c1ccc2c(c1)C(c1cccc(Cl)c1)=NCC(=S)N2`, the melting point turned out to be 125 °C.
Regarding `NS(=O)(=O)c1c(Cl)nc2ccc(C3CC3)nn12`, the melting point was 194 to 196 °C.
Under `COc1ccc(-c2ccc(C3=NOC(CNC(C)=O)C3)cc2)ccc1=O` (stereo unspecified) stands 104 to 105 °C.
On to `CC(C)(F)[C@H]1C(=O)N[C@@H]1CC(=O)O` (racemic), for which the melting point lay in the range of 118 to 122 °C.
Under `CCCCn1c(=O)[nH]c2cc(Cl)cc(Cl)c2c1=O` stands 198 to 201 °C; under `Cc1cn(C(C)(C)C(N)=O)nc1-c1ccccc1`, 105 to 106 °C; under `CCC[C@H](NC(=O)OCc1ccccc1)C(=O)C(N)P(=O)(OC)OC` (stereo partly specified), 82 to 84 °C.
In the case of `CCCCCCCCCCCN(O)C(=O)N(C)C` it was 54 to 55 °C.
Under `CCCCOC(=O)Nc1cccc(C(=O)C=CN(C)C)c1` stands 115 to 116 °C.
Compound `CC(=O)OC1CCN(c2c(F)cc3c(=O)c(C(=O)O)cn4c3c2CCC4C)CC1` (stereo unspecified) registered a melting point of 250 to 253 °C.
Compound `CCc1ccc(-c2ccc(C(=O)Nc3ccc4cc(CN5CCCC5)cnc4c3C)cc2)cc1` registered a melting point of 189 to 190 °C.
Compound `O[C@@H]1CCC(c2ccccc2)(c2ccccc2)[C@@H]2CN(Cc3ccccc3)C[C@H]12` returned a melting point of 154 °C.
In the case of `CC(C)(C)CC(C)(C)c1cc(O)c(Sc2ccccc2)c(Sc2nnnn2-c2ccccc2)c1O` it was 147 °C; in that of `O=C1CC(=CN2CCOCC2)Oc2c(OCc3ccccc3)cccc21`, 107 to 108 °C.
In the case of `COc1ccc(S(=O)(=O)N(C)C)c(N)c1` it was 59 to 64 °C.
`NC(=O)Nc1c(C(=O)c2ccccc2)[nH]c2cc(Cl)ccc12` registered a melting point of 196 to 200 °C.
Under `CN1CC(=O)N(c2ccc(C#N)c(C(F)(F)F)c2)C1=S` stands 220 to 221 °C; under `CCNC(=O)c1c([Si](C)(C)C)ccc(OC)c1Cl`, 136 to 137 °C.
In the case of `CCc1[nH]n(C2CCCC2)c2nc(-c3cc(C)nc(Cl)c3)nc(=O)c1-2` it was 277 to 278 °C; in that of `Nc1c(-c2ccc(-c3ccccc3)cc2)nc2c(Cl)cc(Cl)cc2c1C(=O)O`, 244 to 245 °C.
Under `FC(F)(F)C(c1ccccc1)(c1ccccc1)c1ccccc1` stands 158 to 159 °C.
In turn, `CCC(C)NC(=O)c1nc2cnn(CC)c2nc1-c1ccccc1` (stereo unspecified) yielded a melting point of 150 to 151 °C.
The compound `NC(=O)c1cc(Cl)c(F)c(Cl)c1F` yielded a melting point of 145 to 147 °C.
In the case of `CNC(=O)[C@@H]1CCN1S(=O)(=O)c1ccc(Cl)c(COc2cccc3c(-n4ccnc4)cc(C)nc23)c1Cl` it was 118 °C; in that of `O=C(NCc1ccc(O)cc1)C12CC3CC(CC(C3)C1)C2`, 196 to 198 °C; in that of `Cn1ncc(/C=C/C(=O)Nc2ccc(CC(=O)NN)cc2)c1-c1ccc(F)cc1`, 273 to 274 °C.
Under `CC[C@H](Cn1cnnn1)n1cnc2cc3c(=O)n([C@H](CC)Cn4cnnn4)nnc3cc2c1=O` stands 80 to 81 °C; under `COc1cccc(-c2c(C3CCN(C)CC3)[nH]c(=O)c3ccccc23)c1`, 181 to 183 °C; under `Cc1cc(C)c(C=O)c(O)c1C`, 74 to 75.5 °C.
With `CCOC(=O)CCc1ccc(CCNS(=O)(=O)c2ccc(Cl)cc2)cc1`, the melting point is 61 to 62 °C.
In the case of `COC(=O)N[C@@H]1CCc2ccc(Br)cc2C1` it was 99 to 100 °C; in that of `Fc1ccc(-c2cc3ncnc(Nc4ccc5[nH]ccc5c4)c3s2)cc1Cl`, 175 to 183 °C.
In the case of `CS(=O)(=O)c1ccc(-n2cnc(Cl)c2-c2ccccc2)cc1` it was 145 to 146 °C.
`O=C(Nc1ccc([N+](=O)[O-])cc1)N1CCN(c2ncnc3ccccc23)CC1`: the melting point was in the range of 155 to 158 °C.
As for `O=C(O)C(C1CC(Cl)=NO1)N1C(=O)c2ccccc2C1=O` (stereo unspecified), the melting point fell in the range of 178 to 179 °C.
Under `COC(=O)CC[C@H](NC(=O)c1cn(C(c2ccccc2)(c2ccccc2)c2ccccc2)c(C#Cc2cnc3nc(NC(=O)C(C)(C)C)nc(O)c3c2)n1)C(=O)OC` stands 93 to 95 °C; under `CCOCc1nc2cnc3cc(-c4ccccc4)ccc3c2n1CC1CCN(C(=O)OC(C)(C)C)CC1`, 166 to 167 °C; under `COc1ccc([N+](=O)[O-])c(C(=O)O)c1OC`, 187 to 189 °C.
In the case of `Nc1c(F)cc(C=O)c(F)c1Br` it was 132 to 133 °C; in that of `O=C(O)CN(CC(=O)O)c1cc(OCCCCCCCCCCCCOc2ccccc2)cc(OCCCCCCCCCCCCOc2ccccc2)c1`, 72 to 74 °C; in that of `CCN1CC2OC(c3ccccc3)(C1)c1ccccc12` (stereo unspecified), 132 to 134 °C.
Under `COc1nc(C2CC2)nc(OC(C)C)c1C=O` stands 46 to 47 °C.
The compound `NC(=O)C(Nc1ccc(I)cc1)c1ccccc1` (stereo unspecified) returned a melting point of 134 to 137 °C.
Under `O=c1ccc2c(-c3cccs3)nccc2[nH]1` stands 238 to 240 °C.
Under `CCCc1nn(C)c2c(=O)[nH]c(-c3cc(-c4nccn4C)ccc3OCC)nc12` stands 199 to 202 °C; under `CCCNC(=O)N(C)Cc1cccc2c1CN(C1CCC(=O)NC1=O)C2=O` (stereo unspecified), 220 to 222 °C; under `O=C(Nc1ccc(Cl)cc1)C(O)c1ccccc1Cl` (stereo unspecified), 120 °C.
Under `CN(CCc1ccc([N+](=O)[O-])cc1)Cc1nc2ccc([N+](=O)[O-])cc2o1` stands 69 to 69.5 °C; under `Cc1cc(C)cc(C(=O)N2CCC(Oc3nc4ccccc4n3Cc3ccc(F)cc3)CC2Cc2ccccc2)c1` (stereo unspecified), 154 °C.
The compound `C=Cc1ccc(CSCCC(=O)O)cc1` returned a melting point of 77 to 78 °C.
Under `Nc1ccc(C2Nc3ccccc3C(=O)N2c2ccccc2)cc1` (stereo unspecified) stands 191 °C; under `COc1cc(N)c(Cl)cc1C(=O)NCC1CCN(CCCCSc2ccccc2)CC1`, 102 to 105 °C.
`O=C(c1ccccc1Cl)c1cc(Cl)ccc1C(=O)C(Br)CN1C(=O)c2ccccc2C1=O` (stereo unspecified) yielded a melting point of 178 to 179 °C.
In the case of `COc1ccc2c(c1)C(Cl)CC1C2C(O)CC2(C)C(O)CCC12` (stereo unspecified) it was 150 to 151 °C.
In the case of `NS(=O)(=O)c1ccc(Nc2nc(OCC3CC=CCC3)c3nc[nH]c3n2)cc1` (stereo unspecified) it was 165 °C.
Under `COC(=O)c1cn(-c2ncccn2)cc1C` stands 108 °C.
`CC(OC(=S)Nc1ccc(-c2ncn(-c3ccc(OC(F)(F)F)cc3)n2)cc1)c1ccc(C(F)(F)F)nc1` (stereo unspecified) displayed a melting point of 186 to 188 °C.
Compound `CCOC(=O)CCc1cn(C)nc1O` displayed a melting point of 89 to 91 °C.
`CC(N(CCCl)C(N)=O)P(=O)(O)O` (stereo unspecified): the melting point is 180 °C.
Under `O=c1cc(-c2ccccc2)oc2c(CN3CCC(O)CC3)c(O)c(O)c(O)c12` stands 221 °C; under `CCC(O)c1cc(C2(c3cccc(-c4cccnc4F)c3)N=C(N)N(C)C2=O)cn1CC` (stereo unspecified), 115 to 121 °C; under `Nc1nc(N)c(C(=O)NC(Cc2ccccc2)C(=O)NCCNCC(O)COc2cccc3ccccc23)nc1Cl` (stereo unspecified), 142 to 146 °C.
In the case of `COC(=O)c1cc2cc(C(=O)c3cccc(C(C)C(=O)OC)c3)sc2s1` (stereo unspecified) it was 122 °C; in that of `CC(Br)CCCCN1C(=O)c2ccccc2C1=O` (stereo unspecified), 48 to 51 °C; in that of `CC(=O)OCCSCCCC(=O)NC/C=C\COc1cc(CN2CCCCC2)ccn1`, 36 to 40 °C.
Under `c1ccc(NCP(CNc2ccccc2)CNc2ccccc2)cc1` stands 87 to 88 °C; under `NCC1Cc2cc(-c3ccccc3)cc(-c3cccc(F)c3)c2O1` (stereo unspecified), greater than 250 °C.
Consider `CNC(=C[N+](=O)[O-])NCCSCc1ncccc1Cl`, for which the melting point is 166 °C.
In the case of `O=C(O)c1cc(F)c(-n2cccc2)cc1F` it was 196 to 198 °C; in that of `O=C(O)c1ccccc1OC1CCOC1=O` (stereo unspecified), 113 to 115 °C; in that of `COc1cc(OC)nc(NC(=O)NS(=O)(=O)c2c(Cl)cccc2Cn2cncn2)n1`, 220 to 221 °C.
